# “Also recorded” adds a separate entry of the source.
# Legend:
# P-glycoprotein [1] = target: T1, P-glycoprotein (Homo sapiens, UniProt P08183); experiment: biochemical
# MCF-7/ADR cells = experiment: Chemosensitization of MCF-7/ADR cells (sulforhodamine binding assay, cell killing by anticancer drugs); assay type: cell-based
# Experimental: FIGS. 2A and 2B show the chemosensitization of MCF-7/ADR breast carcinoma cells by Compound A. In FIG. 2A, MCF-7/ADR cells were treated with the indicated concentrations of Compound A in the presence of 15 μM daunomycin (.quadrature.), 200 nM actinomycin D (Δ) or 4 μM cisplatin (.largecircle.). In FIG. 2B, MCF-7 cells (.diamond-solid.) or MCF-7/ADR cells treated with 1% ethanol (.diamond.), 0.6 (.quadrature.) or 2.5 μM of Compound A (Δ) were incubated with the indicated concentrations of vinblastine.
# The ability of Compound A to reverse MDR was examined using MCF-7/ADR cells breast carcinoma cells which were obtained as described in Example 5. The effects of Compound A on cell growth were characterized using the sulforhodamine binding assay (P. Skehan et al., J. Natl. Cancer Inst. 82:1107-1112 (1990)) as described in C. D. Smith et al., Oncology Res. 6:211-218 (1994) and C. D. Smith et al., Mol. Pharm. 45:241-247 (1995). Cell survival was assessed after 48 hours of treatment and was expressed as the percentage of cells killed.
# The results of the chemosensitization tests showing the effect of the MDR reversing agent Compound A on cell killing by anticancer drugs in the multiple drug resistant MCF-7/ADR cells are shown in FIGS. 2A and 2B. The MCF-7/ADR cells were treated with the indicated concentrations of Compound A in the presence of daunomycin, actinomycin D and or cisplatin. Values shown in FIGS. 2A and 2B represent the mean±standard deviation for triplicate samples in one of two similar experiments.
# [2] = system: MCF-7/ADR cells (overexpress P-glycoprotein); experiment: [3H]vinblastine accumulation in MCF-7/ADR cells; assay type: cell-based
# Experimental: The reduction in intracellular accumulation of anticancer drugs due to expression of P-glycoprotein can be at least partially reversed by compounds which interact with the drug transporter.
# D. Smith et al., Mol. Pharm. 45:241-247 (1995), using 20 nm [^3 H]vinblastine sulfate (10-15 Ci/mmole) from the Amersham Corporation.
# [^3 H]vinblastine was then added and its intracellular accumulation after 60 minutes was determined. Values shown in FIG. 1 represent the mean ± standard deviation accumulation of [^3 H]vinblastine in triplicate samples in one of three similar experiments.
# MCF-7 cells = experiment: [3H]vinblastine accumulation in MCF-7 cells; assay type: cell-based; details: parental MCF-7 cells
# Experimental: D. Smith et al., Mol. Pharm.
# [^3 H]vinblastine was then added and its intracellular accumulation after 60 minutes was determined.
# [3] = system: MCF-7/VP cells (express multidrug resistance-related protein (MRP)); experiment: Chemosensitization of MCF-7/VP cells (sulforhodamine binding assay, cytotoxicity of anticancer drugs)
# P-glycoprotein [4] = target: T1, P-glycoprotein
# MDR cells = details: cited from earlier work
# [5] = Tsuruo et al., Cancer Res. 41:1967 (1981)
# T1 sequence (P08183 whole entry): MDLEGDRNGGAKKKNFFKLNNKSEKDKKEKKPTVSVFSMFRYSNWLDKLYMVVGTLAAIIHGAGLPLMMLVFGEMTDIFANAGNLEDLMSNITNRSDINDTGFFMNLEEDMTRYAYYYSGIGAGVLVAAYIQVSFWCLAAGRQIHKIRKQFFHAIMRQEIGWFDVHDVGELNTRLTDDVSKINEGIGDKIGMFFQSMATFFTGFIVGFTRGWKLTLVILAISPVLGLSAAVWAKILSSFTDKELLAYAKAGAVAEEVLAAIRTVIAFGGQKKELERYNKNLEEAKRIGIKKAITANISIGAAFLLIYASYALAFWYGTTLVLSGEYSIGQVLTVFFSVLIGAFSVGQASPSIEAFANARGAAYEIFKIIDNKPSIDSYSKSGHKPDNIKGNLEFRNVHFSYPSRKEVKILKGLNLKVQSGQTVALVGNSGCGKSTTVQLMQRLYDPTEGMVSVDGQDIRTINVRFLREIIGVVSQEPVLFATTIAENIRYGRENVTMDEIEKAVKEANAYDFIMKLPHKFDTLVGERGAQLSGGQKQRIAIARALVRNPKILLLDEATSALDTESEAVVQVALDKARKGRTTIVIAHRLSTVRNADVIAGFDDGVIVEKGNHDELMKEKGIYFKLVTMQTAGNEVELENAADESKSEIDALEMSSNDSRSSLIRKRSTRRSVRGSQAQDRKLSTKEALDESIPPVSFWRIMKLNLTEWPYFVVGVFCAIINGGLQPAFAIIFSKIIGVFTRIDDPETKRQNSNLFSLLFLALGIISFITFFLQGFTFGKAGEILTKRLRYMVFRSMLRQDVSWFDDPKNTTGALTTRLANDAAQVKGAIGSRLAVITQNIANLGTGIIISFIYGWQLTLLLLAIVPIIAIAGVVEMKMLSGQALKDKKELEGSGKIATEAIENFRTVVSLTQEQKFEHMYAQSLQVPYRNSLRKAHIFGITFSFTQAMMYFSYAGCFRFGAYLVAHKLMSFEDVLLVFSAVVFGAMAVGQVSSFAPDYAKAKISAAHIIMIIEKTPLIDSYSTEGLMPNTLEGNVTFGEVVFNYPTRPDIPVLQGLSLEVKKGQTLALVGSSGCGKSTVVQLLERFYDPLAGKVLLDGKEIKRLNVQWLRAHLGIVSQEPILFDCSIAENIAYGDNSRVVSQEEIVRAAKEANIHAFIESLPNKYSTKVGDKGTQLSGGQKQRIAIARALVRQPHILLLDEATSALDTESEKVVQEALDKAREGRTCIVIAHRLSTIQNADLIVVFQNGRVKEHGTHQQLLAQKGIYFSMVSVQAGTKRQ
Structure (SMILES),IC50 (P-glycoprotein [1]) [nM],"active concentrations for chemosensitization (in words) (MCF-7/ADR cells; daunomycin or actinomycin D, FIG. 2A)","reversal of P-glycoprotein-mediated MDR (in words) (MCF-7/ADR cells; vinblastine, FIG. 2B)","effect on cell killing by actinomycin D (MCF-7/ADR cells; with actinomycin D (200 nM in FIG. 2A), 48 hours)","effect on cytotoxicity of cisplatin (MCF-7/ADR cells; with cisplatin (4 μM in FIG. 2A), 48 hours)","effect on cell killing by daunomycin (MCF-7/ADR cells; with daunomycin (15 μM in FIG. 2A), 48 hours)","effect on cell killing by vinblastine (MCF-7/ADR cells; with vinblastine, 48 hours)",ability to increase the accumulation of [3H]vinblastine (in words) ([2]; Compound A compared with verapamil),"activity at 5 µM ([2]; Homo sapiens, NCI/ADR-RES, 1 h, 5 μM, 30 min preincubation, accumulation after 60 min, FIG. 1) [%]","EC (maximal effect) ([2]; Homo sapiens, NCI/ADR-RES, 1 h, FIG. 1, read-out: concentration of maximal effect on [3H]vinblastine accumulation) [µM]",effect on accumulation of [3H]vinblastine (in words) (MCF-7 cells),"reversal of MRP-mediated resistance to vincristine (in words) ([3]; MCF-7/VP cells, 10 μM, 48 hours)","effect on responses to cisplatin ([3]; MCF-7/VP cells, with cisplatin)",binding of [3H]azidopine to P-glycoprotein (in words) (P-glycoprotein [4]),intracellular accumulation of anticancer drugs (in words) (MDR cells; [5]),sensitization of MDR cells to anticancer drugs (in words) (MDR cells; [5]),reversing activity in cultured cells (in words) (MDR cells; cultured cells),"fold resistance of MCF-7/VP cells in comparison with MCF-7 cells ([3]; vincristine, MCF-7/VP vs MCF-7 cells) [fold]"
"Cc1oc2nc1C(=O)N[C@H](C(C)C)c1nc(cs1)C(=O)N[C@H](C)c1nc(cs1)C(=O)N[C@@H]2C [Compound A, Cyclo-D-Val-Tzl-D-Ala-Tzl-D-Ala-mOzl]",500,activity at submicromolar concentrations,completely overcomes P-glycoprotein-mediated MDR,killed more effectively; also recorded: markedly potentiating cell killing,did not alter the cytotoxicity of cisplatin,killed more effectively; also recorded: markedly potentiating cell killing,markedly potentiating cell killing,more potent than verapamil; also recorded: strongly enhanced,750,20,Neither Compound A nor verapamil increased the accumulation,fully reversed; also recorded: fully reverses MRP-mediated resistance,did not modulate responses to cisplatin,progressive decreases in binding,–,–,–,–
COc1ccc(CCN(C)CCCC(C#N)(c2ccc(OC)c(OC)c2)C(C)C)cc1OC (stereo not shown) [verapamil],–,–,–,–,–,–,–,–,–,–,Neither Compound A nor verapamil increased the accumulation,–,–,–,promote intracellular accumulation of those drugs,sensitize MDR cells to anticancer drugs,potent and effective reversing agent,–
"CC[C@]1(O)C[C@H]2CN(CCc3c([nH]c4ccccc34)[C@@](C(=O)OC)(c3cc4c(cc3OC)N(C=O)[C@H]3[C@@](O)(C(=O)OC)[C@H](OC(C)=O)[C@]5(CC)C=CCN6CC[C@]43[C@@H]65)C2)C1 [vincristine, reference compound]",–,–,–,–,–,–,–,–,–,–,–,–,–,–,–,–,–,15

# Source: patent US5869650A, “Dendroamide compounds and their use in chemosensitizing multidrug resistant cells” (Fox Chase Cancer Center, priority 1996, dated 1999)
